In US20030083484A1, “Antisense modulation of short heterodimer partner-1 expression” (priority 2001, published 2003):
Strand notation (5' to 3'): a small letter for the sugar, then the base; units joined by * are phosphorothioate-linked, units joined directly phosphodiester-linked; [ ] holds rarer units or linkages, { } end groups; capitals alone tell only the bases. e = 2'-O-(2-methoxyethyl) (MOE); [5mC] = 5-methylcytosine; d = 2'-deoxy (DNA)

The substances below were run on mouse short heterodimer partner-1 mRNA (assay: Inhibition of mouse short heterodimer partner-1 mRNA levels in primary hepatocytes, quantitative real-time PCR). Details: averages from two experiments.
Type: cell-based
Set-up: concentration or dose not given beside the values
Method: Primary mouse hepatocytes were prepared from CD-1 mice purchased from Charles River Labs (Wilmington, Mass.) and were routinely cultured in Hepatoyte Attachment Media (Gibco) supplemented with 10% Fetal Bovine Serum (Gibco/Life Technologies, Gaithersburg, Md.), 250 nM dexamethasone (Sigma), and 10 nM bovine insulin (Sigma). Cells were seeded into 96-well plates (Falcon-Primaria #3872) at a density of 10000 cells/well for use in RT-PCR analysis.
Cells were harvested 16-24 hours after oligonucleotide treatment.
Vacuum was applied for 15 seconds. […] The elution step was repeated with an additional 60 μL water.
Total RNA is quantified using RiboGreen™ RNA quantification reagent from Molecular Probes.
Probes and primers to mouse short heterodimer partner-1 were designed to hybridize to a mouse short heterodimer partner-1 sequence, using published sequence information (GenBank accession number L75567, incorporated herein as SEQ ID NO: 10).
All cytidine residues are 5-methylcytidines. […] Data are averages from two experiments. If present, “N.D.” indicates “no data”.

| Substance | % INHIB (inhibition of mouse short heterodimer partner-1 mRNA levels) |
| --- | --- |
| 148262 (antisense eT*eG*eA*e[5mC]*eT*dG*dG*d[5mC]*d[5mC]*dG*dG*dA*dG*d[5mC]*dT*e[5mC]*eA*eT*eG*eG) [compound 148262] | 50% |
| 148263 (antisense eA*e[5mC]*e[5mC]*eT*eG*d[5mC]*dA*dG*dA*dG*d[5mC]*d[5mC]*d[5mC]*dT*dG*eG*e[5mC]*eA*eT*eG) [compound 148263] | 0% |
| 148264 (antisense eG*e[5mC]*eA*eT*eA*d[5mC]*dA*dG*dA*dA*dT*dA*dG*dT*d[5mC]*eG*eG*eA*e[5mC]*eG) [compound 148264] | 60% |
| 148265 (antisense eA*eG*eG*eT*eG*d[5mC]*dA*dA*d[5mC]*dG*dG*dG*d[5mC]*d[5mC]*dT*eG*eG*eT*e[5mC]*e[5mC]) [compound 148265] | 41% |
| 148266 (antisense eA*eG*eG*e[5mC]*eA*dG*dT*dG*dG*d[5mC]*dT*dG*dT*dG*dA*eG*eA*eT*eG*e[5mC]) [compound 148266] | 44% |
| 148267 (antisense e[5mC]*eA*e[5mC]*eA*eG*dA*d[5mC]*dG*d[5mC]*dA*d[5mC]*dA*dG*dG*d[5mC]*e[5mC]*eG*e[5mC]*eT*eG) [compound 148267] | 28% |
| 148268 (antisense eT*eG*e[5mC]*eA*eG*dG*dT*dG*d[5mC]*dG*dG*dT*dG*d[5mC]*dG*eG*eA*eG*e[5mC]*eA) [compound 148268] | 19% |
| 148269 (antisense eT*eA*eG*eG*eA*d[5mC]*dA*dT*d[5mC]*d[5mC]*dA*dA*dG*dG*d[5mC]*e[5mC]*eT*e[5mC]*e[5mC]*e[5mC]) [compound 148269] | 59% |
| 148270 (antisense e[5mC]*eA*e[5mC]*eT*e[5mC]*dT*dA*dG*d[5mC]*dA*dG*d[5mC]*d[5mC]*dG*d[5mC]*e[5mC]*eG*e[5mC]*eT*eG) [compound 148270] | 46% |
| 148271 (antisense eA*eA*e[5mC]*e[5mC]*e[5mC]*dA*dA*dG*d[5mC]*dA*dG*dG*dA*dA*dG*eA*eG*eA*eG*eG) [compound 148271] | 56% |
| 148272 (antisense e[5mC]*eG*eG*eA*eG*d[5mC]*d[5mC]*dT*d[5mC]*dA*dG*d[5mC]*d[5mC]*dA*d[5mC]*e[5mC]*eT*e[5mC]*eG*eA) [compound 148272] | 69% |
| 148273 (antisense eT*eG*eG*e[5mC]*eT*dT*d[5mC]*d[5mC]*dT*d[5mC]*dT*dA*dG*d[5mC]*dA*eG*eG*eA*eT*e[5mC]) [compound 148273] | 33% |
| 148274 (antisense eG*eG*e[5mC]*eA*e[5mC]*d[5mC]*d[5mC]*dT*dG*dG*dG*dT*dA*d[5mC]*d[5mC]*eG*e[5mC]*eT*eG*e[5mC]) [compound 148274] | 22% |
| 148275 (antisense eT*eG*eT*eG*eG*d[5mC]*d[5mC]*dG*dG*dT*d[5mC]*dT*dG*dA*dT*eG*eG*e[5mC]*eT*eG) [compound 148275] | 28% |
| 148276 (antisense eA*eG*eA*eA*eA*dG*dA*d[5mC]*dT*d[5mC]*d[5mC]*dA*dG*dG*d[5mC]*eA*eG*e[5mC]*eG*e[5mC]) [compound 148276] | 56% |
| 148277 (antisense eT*eT*e[5mC]*eA*eG*dG*dT*dA*d[5mC]*dG*d[5mC]*dA*dT*dA*d[5mC]*eT*e[5mC]*e[5mC]*eT*eT) [compound 148277] | 62% |
| 148278 (antisense e[5mC]*eA*e[5mC]*eA*eG*dT*dG*d[5mC]*d[5mC]*d[5mC]*dA*dG*dT*dG*dA*eG*e[5mC]*e[5mC]*eT*e[5mC]) [compound 148278] | 36% |

| Substance | % INHIB (inhibition of mouse short heterodimer partner-1 mRNA levels) |
| --- | --- |
| 148279 (antisense eG*eG*eT*eA*eG*dA*dG*dG*d[5mC]*d[5mC]*dA*dT*dG*dA*dG*eG*eA*eG*eG*eA) [compound 148279] | 43% |
| 148280 (antisense eG*eT*eG*e[5mC]*e[5mC]*dT*dG*dG*dA*dA*dT*dG*dT*dT*d[5mC]*eT*eT*eG*eA*eG) [compound 148280] | 33% |
| 148281 (antisense eA*eG*eA*eA*eG*dA*dG*dA*dT*d[5mC]*dT*dA*d[5mC]*d[5mC]*dA*eG*eA*eA*eG*eG) [compound 148281] | 48% |
| 148282 (antisense eT*eG*eA*eT*eG*dT*d[5mC]*dA*dA*d[5mC]*dG*dT*d[5mC]*dT*d[5mC]*e[5mC]*e[5mC]*eA*eT*eG) [compound 148282] | 22% |
| 148285 (antisense eA*e[5mC]*eA*eG*eT*dT*dA*dG*dT*dA*dG*dT*dG*dT*dA*e[5mC]*eA*e[5mC]*eT*eG) [compound 148285] | 50% |
| ISIS 148262: 2′-MOE gapmer, phosphorothioate, TGACTGGCCGGAGCTCATGG, targets mouse short heterodimer partner-1 RNA (antisense eT*eG*eA*e[5mC]*eT*dG*dG*d[5mC]*d[5mC]*dG*dG*dA*dG*d[5mC]*dT*e[5mC]*eA*eT*eG*eG) | at least 50% |
| ISIS 148264: 2′-MOE gapmer, phosphorothioate, GCATACAGAATAGTCGGACG, targets mouse short heterodimer partner-1 RNA (antisense eG*e[5mC]*eA*eT*eA*d[5mC]*dA*dG*dA*dA*dT*dA*dG*dT*d[5mC]*eG*eG*eA*e[5mC]*eG) | at least 50% |
| ISIS 148269: 2′-MOE gapmer, phosphorothioate, TAGGACATCCAAGGCCTCCC, targets mouse short heterodimer partner-1 RNA (antisense eT*eA*eG*eG*eA*d[5mC]*dA*dT*d[5mC]*d[5mC]*dA*dA*dG*dG*d[5mC]*e[5mC]*eT*e[5mC]*e[5mC]*e[5mC]) | at least 50% |
| ISIS 148271: 2′-MOE gapmer, phosphorothioate, AACCCAAGCAGGAAGAGAGG, targets mouse short heterodimer partner-1 RNA (antisense eA*eA*e[5mC]*e[5mC]*e[5mC]*dA*dA*dG*d[5mC]*dA*dG*dG*dA*dA*dG*eA*eG*eA*eG*eG) | at least 50% |
| ISIS 148272: 2′-MOE gapmer, phosphorothioate, CGGAGCCTCAGCCACCTCGA, targets mouse short heterodimer partner-1 RNA (antisense e[5mC]*eG*eG*eA*eG*d[5mC]*d[5mC]*dT*d[5mC]*dA*dG*d[5mC]*d[5mC]*dA*d[5mC]*e[5mC]*eT*e[5mC]*eG*eA) | at least 50% |
| ISIS 148276: 2′-MOE gapmer, phosphorothioate, AGAAAGACTCCAGGCAGCGC, targets mouse short heterodimer partner-1 RNA (antisense eA*eG*eA*eA*eA*dG*dA*d[5mC]*dT*d[5mC]*d[5mC]*dA*dG*dG*d[5mC]*eA*eG*e[5mC]*eG*e[5mC]) | at least 50% |
| ISIS 148277: 2′-MOE gapmer, phosphorothioate, TTCAGGTACGCATACTCCTT, targets mouse short heterodimer partner-1 RNA (antisense eT*eT*e[5mC]*eA*eG*dG*dT*dA*d[5mC]*dG*d[5mC]*dA*dT*dA*d[5mC]*eT*e[5mC]*e[5mC]*eT*eT) | at least 50% |
| ISIS 148284: 2′-MOE gapmer, phosphorothioate, GAGGCACCAGACTCCATTCC, targets mouse short heterodimer partner-1 RNA (antisense eG*eA*eG*eG*e[5mC]*dA*d[5mC]*d[5mC]*dA*dG*dA*d[5mC]*dT*d[5mC]*d[5mC]*eA*eT*eT*e[5mC]*e[5mC]) | at least 50% |
| ISIS 148285: 2′-MOE gapmer, phosphorothioate, ACAGTTAGTAGTGTACACTG, targets mouse short heterodimer partner-1 RNA (antisense eA*e[5mC]*eA*eG*eT*dT*dA*dG*dT*dA*dG*dT*dG*dT*dA*e[5mC]*eA*e[5mC]*eT*eG) | at least 50% |
| ISIS 148286: 2′-MOE gapmer, phosphorothioate, AGTCATCAAGGGCTTGCTGG, targets mouse short heterodimer partner-1 RNA (antisense eA*eG*eT*e[5mC]*eA*dT*d[5mC]*dA*dA*dG*dG*dG*d[5mC]*dT*dT*eG*e[5mC]*eT*eG*eG) | at least 50% |
| ISIS 148287: 2′-MOE gapmer, phosphorothioate, GTTCTGTACAAAGTCAGGAG, targets mouse short heterodimer partner-1 RNA (antisense eG*eT*eT*e[5mC]*eT*dG*dT*dA*d[5mC]*dA*dA*dA*dG*dT*d[5mC]*eA*eG*eG*eA*eG) | at least 50% |
